Test results reported in US11059855B2, “Antimicrobial peptides and methods of making and using same” (priority 2017, dated 2021).

Assays:
[1] = previous work; cited from earlier work
[2] = Circular dichroism secondary structure (Dichroweb), with POPC; type: physicochemical
Protocol: (§1) Dichroweb software analyzes the secondary structure of LDKA peptides from circular dichroism spectroscope. The table presents the percentage of each helix and strand structure at different temperature. The data are analyzed using CONTIN-LL method and Reference Set 4 (Optimised for 190-240 nm).
(§2) Peptide solutions (peptide concentration is 50 μM) were titrated with POPC and POPG LUVs (50, 100, 250, 500, 1000 μM) and the corresponding changes CD spectra collected. Analysis of these spectra using CD tools and Dichroweb provides an ensemble average of the changes in secondary structure in the presence of POPC and POPG LUVs (dichroweb.cryst.bbk.ac.uk), which gives a direct measure of the binding free energies for each peptide.

[3] = 3-kDa dextran macromolecule release assay, POPC; type: biochemical; details: P:L = 1:1000, pH 7 phosphate buffer
Protocol: Several different size dextrans were prepared and labelled with both TAMRA and biotin. Conjugated dextran was entrapped in POPC LUVs as described above. External dextran was removed by incubation with immobilized streptavidin. Streptavidin labelled with an Alexa-488 fluorophore was added during the leakage experiment with the peptide as previous described.^5 The sample was then incubated for 3 hr before measuring Alexa-488 fluorescence. A control without added peptide served as the 0% leakage signal and addition of 0.05% vol. Triton X-100 was used to determine 100% leakage.

[4] = ANTS/DPX leakage assay, POPG; type: biochemical; details: P:L = 1:1000, pH 7 phosphate buffer
Protocol: (§3) 5 mM ANTS and 12.5 mM DPX were entrapped in 0.1 μm diameter extruded vesicles with lipids. Gel filtration chromatography of Sephadex G-100 (GE Healthcare Life Sciences Inc.) was used to remove external free ANTS/DPX from LUVs with entrapped contents. […] Leakage was measured after 3 hr incubation. 10% Triton was used as the positive control to measure the maximum leakage of the vesicle. Fluorescence emission spectra were recorded using excitation wavelength (Ex: 350 nm) and emission wavelength (Em: 510 nm) for ANTS/DPX using Synergy H1 Hybrid Multi-Mode Reader.
(§4) This detects and quantifies the release of a small fluorescent dye (ANTS/DPX; MW=˜400 Da) encapsulated in LUVs after addition of library peptides. Neutral POPC LUVs serve as a simple model for mammalian membranes, while charged POPG LUVs mimic bacterial membranes enriched in anionic lipids.

[5] = Pore-size characterization by 3-kDa dextran release; type: biochemical; details: ‡Large pore for PG only
Excerpt: Eight LDKA peptides with different lipid selectivity and pore sizes were selected from the high-throughput screen and sequenced. […] The most common mutation is L to A, occurred 13 times and in 7 out of the 8 peptides, followed by A to L, which occurred 6 times in 5 peptides, L to D which occurred 3 times in 3 peptides, and L to P that occurred once. Lysine (K) is not favorable to be shown at the position 6, 8, 10, 12, and 13, which is the non-polar face of the helical structure. […] More specifically, the analogs only induce leakage from anionic POPG vesicles have 4-5 leucines, which is less than the analogs that can porate both POPC and POPG vesicles and have 6-7 leucines in their sequences.

[6] = provided by the distributor, GenScript; cited from earlier work
[7] = Circular dichroism secondary structure (Dichroweb), peptide only; type: physicochemical; details: 20 °C
Protocol: as §1, §2

[8] = test system: methicillin-resistant Staphylococcus aureus (MRSA); type: cell-based; details: 75 μM maximum tested; NDA = not determinable
[9] = Circular dichroism secondary structure (Dichroweb), with POPG; type: physicochemical
Protocol: as §1, §2

[10] = Membrane selectivity from high-throughput dye leakage screen; type: biochemical; details: PC = POPC, PG = POPG
Excerpt: as §4

[11] = 3-kDa dextran macromolecule release assay, POPG; type: biochemical; details: P:L = 1:1000, pH 7 phosphate buffer
P. aeruginosa = assay: Bacterial minimum inhibitory concentration (MIC), P. aeruginosa; type: cell-based, Pseudomonas aeruginosa; details: 75 μM maximum tested; NDA = not determinable
Protocol: (§5) Escherichia colt strain ATCC 25922, Staphylococcus aureus strain ATCC 25923, and Pseudomonas aeruginosa strain ATCC PAO1 were used in this study. Overnight cultures were subcultured to log phase (OD600=0.3-0.6) after which cell counts were determined by measuring the OD600 (OD600 1.0=1.5×10^8 CFU/mL for S. aureus, 5×10^8 CFU/mL for E. colt, and 2.04×10^8 CFU/mL for P. aeruginosa). Bacteria in minimal media mere added to serially diluted peptides and incubated for 3 hr, followed by the addition of full growth media. After overnight incubation, the optical density of the wells was recorded on a plate reader to determine whether they were sterilized (OD<0.08) or were at stationary phase growth (OD600>0.5). Intermediate values, which were rare, were considered positive for growth. Average minimum sterilizing concentrations were calculated from the lowest peptide concentration that sterilized the bacteria in each serial dilution. The samples were done in sextuplet.

S. aureus = assay: Bacterial minimum inhibitory concentration (MIC), S. aureus; type: cell-based, Staphylococcus aureus; details: 75 μM maximum tested; NDA = not determinable
Protocol: as §5

[12] = ANTS/DPX leakage assay, POPC; type: biochemical; details: P:L = 1:1000, pH 7 phosphate buffer
Protocol: as §3, §4

human red blood cells = assay: Hemolysis assay; type: cell-based
Protocol: (§6) Fresh human red blood cells were obtained from Interstate Blood Bank, Inc., and thoroughly washed in PBS until the supernatant was clear. hRBC concentration was determined using a standard hemocytometer. In hemolysis assays serial dilutions of peptide were prepared, followed by the addition of 2×10^8 hRBC/mL. After incubation for 1 hr at 37° C. the cells were centrifuged and the released hemoglobin was measured by optical absorbance of the heme group (410 nm). Negative control was buffer only (0% lysis), and the positive control was 20 μM melittin and distilled water (100% lysis). The samples were done in triplicate.

Hemolysis assay = type: cell-based, human; details: human
Protocol: as §6

[13] = test system: Staphylococcus aureus biofilm; assay: Activity against biofilm, S. aureus; type: cell-based; details: 100 μM peptide concentration, 3 hr treatment
Protocol: (§7) Selected analogues were tested with each (13A). Escherichia coli biofilm, (13B). Staphylococcus aureus biofilm, and (13C) Pseudomonas aeruginosa biofilm.
(§8) However, most of the LDKA analogues fail to treat S. aureus and P. aeruginosa biofilms. Only K7H and 7F3 are capable to reduce S. aureus biofilms by ˜50% with 100 μM peptide concentration, and none of the analogues work against P. aeruginosa biofilms (FIGS. 13a-13c).

Escherichia coli biofilm = assay: Activity against biofilm, E. coli; type: cell-based; details: 67-150 μM peptide, 3 hr treatment
Protocol: as §7, §8

[14] = test system: ciprofloxacin-resistant E. coli
Protocol: “N.D.” means “not determined”.
Ceftazidime is active on the bacteria's cell wall and interferes with bacterial cell wall formation.^38,39 Ciprofloxacin is able to inhibit DNA gyrase, type II topoisomerase, and topoisomerase IV to separate bacterial DNA and inhibits cell division.^40 Streptomycin and gentamicin are antibiotics that can interrupt and inhibit protein synthesis.^41,42 E. coli strain ATCC 25922 cultures were grown in the presence of each of these antibiotics at elevated concentration for 10 generations.

Substance | Peptide-POPC, Helix ([2]; 20 °C) [%] | Peptide-POPC, Strand ([2]; 20 °C) [%] | Peptide-POPC, Helix ([2]; 45 °C) [%] | Peptide-POPC, Strand ([2]; 45 °C) [%] | Peptide-POPC, Helix ([2]; 70 °C) [%] | Peptide-POPC, Strand ([2]; 70 °C) [%] | Peptide-POPC, Helix ([2]; 95 °C) [%] | Peptide-POPC, Strand ([2]; 95 °C) [%] | Solubility, DMSO [6] [µg/mL] | Solubility, DPBS pH 7.1 [6] [mg/mL] | Solubility, Ultrapure Water [6] [µg/mL] | Peptide-only, Helix [7] [%] | Peptide-only, Strand [7] [%] | Peptide-POPG, Helix ([9]; 20 °C) [%] | Peptide-POPG, Strand ([9]; 20 °C) [%] | Peptide-POPG, Helix ([9]; 45 °C) [%] | Peptide-POPG, Strand ([9]; 45 °C) [%] | Peptide-POPG, Helix ([9]; 70 °C) [%] | Peptide-POPG, Strand ([9]; 70 °C) [%] | Peptide-POPG, Helix ([9]; 95 °C) [%] | also measured
GL5RL5G: polyleucine-based peptide of the acetyl-GLnRLnG-amide family, n=5 (SEQ ID NO: 28) (Ac-GLLLLLRLLLLLG-NH2) |  |  |  |  |  |  |  |  |  |  |  |  |  |  |  |  |  |  |  |  | ΔGS→TM [1]: 2.1 ± 0.2 kcal/mol
H-GLLDLLKLLLKLAGW-NH2 [Peptide 28H6] | 58 | 10 | 64 | 6 | 68 | 6 | 65 | 3 | 15000 | <0.1 | 500 | 63 | 4 | 18 | 32 | 23 | 29 | 27 | 25 | 55 | 3-kDa Dextran release, POPC [3]: 38%; ANTS/DPX release, POPG [4]: 105%; Pore size [5]: Large; Minimum Inhibitory Concentration, MRSA [8]: NDA; Peptide-POPG, Strand ([9]; 95 °C): 7%; Membrane selectivity (POPC vs POPG vesicles) [10]: Non-selective; 3-kDa Dextran release, POPG [11]: 67%; Minimum Inhibitory Concentration, P. aeruginosa (P. aeruginosa): NDA; Minimum Inhibitory Concentration, S. aureus (S. aureus): NDA; ANTS/DPX release, POPC [12]: 99%; Hemolytic activity (in words) (human red blood cells): significantly haemolytic; HC50 at 1 hr (Hemolysis assay): 1200 nM
H-GLLDLLHLLLKAAGW-NH2 [Peptide K7H] | 65 | 5 | 80 | 1 | 80 | 2 | 72 | 3 | 15000 | <0.1 | 1000 | 62 | 4 | 53 | 11 | 59 | 8 | 77 | 2 | 77 | Reduction of S. aureus biofilms [13]: ~50%; Peptide-POPG, Strand ([9]; 95 °C): 2%; Minimum Inhibitory Concentration, P. aeruginosa (P. aeruginosa): does not inhibit and NDA; Minimum Inhibitory Concentration, S. aureus (S. aureus): 3 µM; CC50 at 1 hr (Hemolysis assay): 2300 nM
GL6RL6G: polyleucine-based peptide of the acetyl-GLnRLnG-amide family, n=6 (SEQ ID NO: 29) (Ac-GLLLLLLRLLLLLLG-NH2) |  |  |  |  |  |  |  |  |  |  |  |  |  |  |  |  |  |  |  |  | ΔGS→TM [1]: 0.5 ± 0.3 kcal/mol
H-GLADLAKLLLKLLGW-NH2 [Peptide 7F3] | 82 | 1 | 77 | 2 | 76 | 3 | 70 | 4 | 15000 | <0.1 | 5000 | 75 | 4 | 52 | 12 | 58 | 7 | 66 | 2 | 76 | 3-kDa Dextran release, POPC [3]: -3%; ANTS/DPX release, POPG [4]: 106%; Pore size [5]: Small; Elimination of E. coli biofilm (Escherichia coli biofilm): ~50%; Reduction of S. aureus biofilms [13]: ~50%; Peptide-POPG, Strand ([9]; 95 °C): 2%; Membrane selectivity (POPC vs POPG vesicles) [10]: Non-selective; 3-kDa Dextran release, POPG [11]: 46%; Minimum Inhibitory Concentration, P. aeruginosa (P. aeruginosa): NDA; ANTS/DPX release, POPC [12]: 88%; Hemolytic activity (in words) (human red blood cells): significantly haemolytic; HC50 at 1 hr (Hemolysis assay): 1100 nM; MIC, ciprofloxacin-resistant E. coli [14]: completely fail
